In US20220170119A1, “Signaling Pathway of Cannabidiol (CBD) for Prevention and Treatment of COVID-19” (Hemix Biotech Limited, priority 2020, published 2022):

Assays:
TRIB3 [1] = experiment: TRIB3 expression in Caco2 cells by immunofluorescence staining (FIG. 11); assay type: cell-based, human; conditions: 5 μM CBD (FIG. 11)
Source text: (§1) Referring to FIG. 11, we have further analyzed the mechanism of CBD treatment on Caco-2 cells by comparing the expression level of TRIB3 and AFT5 in Caco2 cells by the CBD treatment. Compared to FIG. 10, we have measured the expression of TRIB3 and AFT5 by immunofluorescence staining.

Caco-2 cells = experiment: Proliferation rate (PDL) of Caco-2 cells; assay type: cell-based, human; conditions: 5 μM CBD
Method: Referring to FIG. 8, which shown the proliferation rate of Caco-2 cells with CBD treatment. We have compared the population doubling level (PDL) of Caco-2 cells with CBD treatment at four different concentration, namely, 0 μM CBD, 5 μM CBD, 10 μM CBD, and 20 μM CBD. […] Therefore, the COVID-19 virus suppression effect observed in FIG. 7 was not caused by toxicity of CBD.

wild type MEFs = experiment: Proliferation rate (population doubling level) of wild type MEFs; assay type: cell-based, mouse
Method: (§2) In the step of determining cells' proliferation rate and the optimal concentration of molecules, the primary mouse embryonic fibroblasts (MEFs) at passage 3 were counted by using LUNA-II Automated Cell Counter. 1.0×10^5 cells were seeded to a well of 6-well plate. The cells were treated with DMSO as control, 10 μM or 50 μM CBD.
(§3) Referring to FIG. 2, after 4-day and 8-day treatment, the cells were counted again using automated cell counter. The population doubling level (PDL), which reflects the proliferation rate of cells, was calculated by the formula: n=3.32 (log UCY−log I)+X, where n=the PDL number, UCY=the cell yield at that time point, I=the initial cell number, and X=the doubling level of the cells used to initiate the subculture being quantitated.

LMNA^G609G/G609G mice = experiment: CBD treatment in LMNA G609G/G609G mice (health span); assay type: in vivo, mouse; conditions: IP twice a week
Method: CBD was dissolved in 5% DMSO and 5% polyethylene glycol (PEG) in sterile saline and stored at −80° C. for up to 1 month. 2 months old LMNA^G609G/G609G mice were selected used. The mice then received an intraperitoneal injection (IP) twice a week until they reached the humane point.
In step of CBD treating in mice, 2 months old LMNA^G609G/G609G mice were selected and used. They received an intraperitoneal injection (IP) twice a week until they reached the humane point. Different dosages were used for the injection; 50 mg/kg of CBD was identified as the optimal dosage with the greatest extend in health span of the treated mice. CBD was dissolved in 5% DMSO and 5% polyethylene glycol (PEG) in sterile saline and stored at −80° C. for up to 1 month.

ATF5 [2] = experiment: ATF5 expression in Caco2 cells by immunofluorescence staining (FIG. 11); assay type: cell-based, human; conditions: 5 μM CBD (FIG. 11)
Source text: as §1

TRIB3 [3] = experiment: TRIB3 expression level in Caco-2 cells (FIG. 10); assay type: cell-based, human; conditions: Caco2 cells, CBD treatment (FIG. 10)
Source text: (§4) Referring to FIG. 10, we have further analyzed the mechanism of CBD treatment on Caco-2 cells by comparing the expression level of TRIB3 and AFT5 in Caco-2 cells by the CBD treatment. […] Similarly, ATF5 was also identified by the RNA sequencing results and it is closely associated with TRIB3.

TRIB3 [4] = experiment: RNA sequencing of TRIB3 expression in wild type MEFs; assay type: cell-based, mouse; conditions: wild type MEFs receiving CBD treatment
Method: (§5) RNA sequencing is carried out wherein the RNA samples were extracted using TRIzol and kept in 75% ethanol in diethylpyrocarbonate (DEPC) water at −20° C. For each condition, two biological replicates were prepared for RNA sequencing. The RNA samples were dissolved in DEPC water and carried out quality control analysis. The RNA quantitation was done using Nanodrop™ and Agilent® 2100 Bioanalyzer. The RNA integrity was measured using Agilent® 2100 Bioanalyzer. The RNA purity was measured using agarose gel electrophoresis and Agilent® 2100 Bioanalyzer.
(§6) The samples that had concentration over 50 ng/μl for volume over 20 μl, RIN value over 6.3, and OD260/280 value over 2.0 were considered to pass the quality control analysis and were used for RNA sequencing. Illumina sequencing system was used for paired-end reads of read lengths PE150. 6 GB of raw data was acquired from each sample. […]
(§7) In the step of RNA sequencing, the RNA samples were extracted using TRIzol and kept in 75% ethanol in diethylpyrocarbonate (DEPC) water at −20° C. […] The RNA quantitation was done using Nanodrop™ and Agilent® 2100 Bioanalyzer. The RNA integrity was measured using Agilent® 2100 Bioanalyzer. The RNA purity was measured using agarose gel electrophoresis and Agilent® 2100 Bioanalyzer. […]

Caco2 cells = experiment: KI67 expression in Caco2 cells; assay type: cell-based, human; conditions: 5 μM CBD
Method: Referring to FIG. 9, to confirm that the COVID-19 virus suppression effect observed in FIG. 7 was not caused by toxicity of CBD, we have analyzed the expression of KI67 with CBD treatment at the concentration of 5 μM CBD. […] It is confirmed that the COVID-19 virus suppression effect observed in FIG. 7 was not caused by toxicity of CBD.

lung fibrosis = experiment: Masson Trichrome staining of Covid-19 infected golden hamster lung; assay type: in vivo; conditions: lung of Covid-19 infected golden hamster, compared to control
Source text: Referring to FIG. 14, we have further tested CBD's anti-COVID-19 effects by analysis of Masson Trichrome staining of Covid-19 infected golden hamster lung treated with control or CBD.

SARS-Cov-2 pseudovirus = experiment: Luciferase assay of SARS-Cov-2 pseudovirus infection of Caco2 cells; assay type: cell-based
SARS-CoV-2 = experiment: qPCR of viral gene copy in SARS-CoV-2 infected golden hamster; assay type: in vivo
Source text: Referring to FIG. 12, we tested the CBD's anti-COVID-19 effects in nasal turbinate of golden hamster by qPCR analysis of viral gene copy in nasal turbinate of SARS-CoV-2 infected golden hamster upon CBD treatment.

TRIB3 [5] = experiment: RNA sequencing of TRIB3 expression in Lamin A 609 MEFs; assay type: cell-based, mouse; conditions: premature aging Lamin A 609 MEFs, CBD treatment
Method: as §5, §6, §7

nCoV virus = experiment: nCoV infection of Huh7 cells, qPCR of viral gene copy number; assay type: cell-based
Method: (§8) To examine CBD inhibitory effects on nCoV infection, Huh7 cells were chosen. 2.0×10^5 cells/well of Huh7 cells were seeded to 24-well plate. The Huh7 cells were treated with DMSO as control, 2.5 μM, 5 μM or 10 μM CBD for 1 hour. The Huh7 cells were then infected with 0.01 MOI of nCoV virus for 1 hour. The inoculum was discarded and the plate was washed with 1 mL PBS twice. The Huh7 cells were then cultured in DMEM/F-12 and treated with DMSO as control, 2.5 μM, 5 μM or 10 μM CBD. After 2, 24 and 48 hours after infection, the supernatant and cell lysate were collected for qPCR analysis for determination of viral gene copy number.
as §8, with “In the step of examining CBD” for “To examine CBD”, “nCoV infection in” for “nCoV infection,”, “Huh7 cells,” for “Huh7 cells were chosen.”

Lamin A 609 MEFs = experiment: Proliferation rate (population doubling level) of Lamin A 609 MEFs; assay type: cell-based, mouse
Method: as §2, §3

ATF5 [6] = experiment: ATF5 expression level in Caco-2 cells (FIG. 10); assay type: cell-based, human; conditions: Caco2 cells, CBD treatment (FIG. 10)
Source text: as §4

Covid-19 = conditions: human, in vivo; cited from earlier work

## C=C(C)[C@@H]1CCC(C)=C[C@H]1c1c(O)cc(CCCCC)cc1O [CBD, Cannabidiol]
TRIB3 [1]
  TRIB3 level of expression, immunofluorescence staining: increased
Caco-2 cells
  proliferation of Caco-2 cells shown by population doubling level (PDL): didn't affect proliferation
Wild type MEFs; high dosage 50 μM CBD
  population doubling level (PDL): significantly decreased
Wild type MEFs; optimal dosage 10 μM CBD
  population doubling level (PDL): significantly increased
LMNA^G609G/G609G mice
  optimal dosage with the greatest extend in health span: 50 mg/kg
ATF5 [2]
  ATF5 level of expression, immunofluorescence staining: increased
TRIB3 [3]
  expression level of TRIB3: significantly upregulate
TRIB3 [4]
  TRIB3 expression (fpkm, RNA sequencing): upregulated
Caco2 cells
  proliferation of Caco2 cells shown by KI67: didn't affect proliferation
Lung fibrosis
  area and intensity of blue stain (fibrosis), Masson Trichrome staining: significantly lowered
SARS-Cov-2 pseudovirus
  reduction of SARS-Cov-2 pseudovirus infection: 72%
SARS-CoV-2; lung
  SARS-Cov-2 infection (viral gene copy) in lung: suppress
SARS-CoV-2; nasal turbinate
  SARS-CoV-2 infection (viral gene copy) in nasal turbinate: reduced
TRIB3 [5]
  expression levels of TRIB3 (RNA sequencing): increase
nCoV virus; Huh7 cells, 2.5, 5 or 10 μM CBD, 0.01 MOI, 2, 24 and 48 hours after infection
  nCoV virus infection (viral gene copy number in cell lysate and supernatant): inhibited
nCoV virus; Huh7 cells, inhibition of nCoV infection
  optimal dosage of CBD: 5 µM
Lamin A 609 MEFs; high dosage 50 μM CBD
  population doubling level (PDL): significantly decreased
Lamin A 609 MEFs; optimal dosage 10 μM CBD
  population doubling level (PDL): significantly increased
ATF5 [6]
  expression level of ATF5: significantly upregulate

## NC(=O)c1nc(F)c[nH]c1=O [Favipiravir]
Covid-19
  efficacy in treating COVID-19: not conclusive

## Ivermectin
Covid-19
  efficacy in treating COVID-19: not conclusive

## Lopinavir-ritonavir
Covid-19
  efficacy in treating COVID-19: not conclusive
